From US20260049078A1, “DIFLUORO- AND TRIFLUORO-ACETYL HYDRAZIDES AS SELECTIVE HDAC6 INHIBITORS” (ITALFARMACO S.P.A., priority 2022, published 2026) come the findings set out here.

SMILES strings stand for the structures. pIC50: −log10 of the molar value.

In one assay the target is recombinant human HDAC1 (Homo sapiens (Human), UniProt Q13547). The experiment in a line: Enzyme inhibitory activity assay on HDAC1. The following applies: 120 minutes preincubation at 25° C. The format is biochemical. On the procedure:
(§1) For each test compound, 100× concentrated DMSO solutions at 8 doses were prepared and then diluted in assay buffer (25 mM Tris-HCl, pH 8, 130 mM NaCl, 0.05% Tween-20, 10% Glycerol) to obtain 5× concentrated solutions in relation to the final concentrations (typical final concentration range—6.4-200000 nM or 0.18-50000 nM, final DMSO content—1%). Then 10 μL solution of each test compound concentration were placed on a 96-well plate in triplicate and 15 μL of 3.33× concentrated enzyme solution in the assay buffer containing 3.33× concentrated BSA (final BSA concentration 1 mg/mL) and, in case of HDAC6, 3.33× concentrated TCEP (final TCEP concentration—200 μM) were added to each well. After a period of preincubation at 25° C. (30 minutes for HDAC6 and 120 minutes for HDAC1), 25 μL of solution containing the substrate were added. As substrate, FLUOR DE LYS® deacetylase substrate (Enzo Life Sciences, cat: BML-KI104, FdL), FLUOR DE LYS®-Green substrate (Enzo Life Sciences, cat: BML-KI572, FdL_G) or Boc-Lys(Tfa)-AMC (Bachem, cat: 4060676.005, Tfal)—2× concentrated solution in assay buffer were used. Following a reaction period (30 minutes at 25° C.), 50 μL of the development solution consisting of concentrate FLUOR DE LYS® developer I (Enzo Life Sciences, ca: BML-KI105), diluted 200 times in buffer (50 mM Tris-HCl, pH 8, 137 mM NaCl, 2.7 mM KCl, 1 mM MgCl2) plus 2 μM TSA was added and, after 25 minutes at room temperature in the dark, using the Victor 1420 Multilabel Counter Perkin Elmer Wallac instrument, the fluorescence reading was carried out (excitation/emission: 485/535 nM—Fluor de Lys Green, 355/460 nM—Tfal, Fluor de Lys).
(§2) Enzymatic activity on recombinant human HDAC6 and HDAC1 was evaluated (Table 2) for each synthesized compound.

Another assay concerns SH-SY5Y cells. The experiment in a line: In vitro α-tubulin acetylation in undifferentiated SH-SY5Y cells. The format is cell-based. The following applies: overnight, @1uM. The procedure: SH-SY5Y cells (ATCC, cod. CRL-2266) are plated in optical optimized 96-well black plates (Perkin Elmer, cod. 6055302) at 5000 cells/well in 100 μl/well of growth medium (DMEM/F12 (1:1)+10 mM hepes+100 units/mL of penicillin+100 μg/mL of streptomycin+10% of inactivated Foetal calf serum (FCS, Hyclone)).
After 24 h of seeding, cells are incubated overnight with the selected molecules at 0.1-1-10 μM. ACY1083 and Tubastatin A, at the same doses, are tested as positive controls of α-Tubulin acetylation, while untreated cells are incubated with 0.01% DMSO and indicated as CTRL DMSO.
At the end of the incubation, cells are fixed adding 100 μL/well of formaldehyde 8% in PBS (final formaldehyde concentration 4% in 200 μL/well) directly in the 100 μL/well of medium, for 30 min at RT. The fixing solution is carefully removed, and wells are washed twice with PBS for 10 min each. Fixed cells are kept in PBS at 4° C. until staining.
The day of the staining experiment, the fixed cells are incubated 60 min with the blocking buffer (PBS with 5% FCS+0.3% Triton™ X-100). While blocking, primary antibodies are prepared by diluting 1:200 the α-Tubulin Alexa Fluor 488 Conjugate (Cell Signaling, cod. 5063) antibody and 1:50 Acetyl-α-Tubulin Alexa Fluor 647 Conjugate (Cell Signaling, cod. 81502) antibody in the Antibody Dilution Buffer (PBS with 1% BSA+0.3% Triton™ X-100). Once the blocking solution is aspirated, the diluted primary antibodies are applied and incubated overnight at 4° C. The next day, cells are rinsed twice with PBS (10 min each), incubated 5 min with 300 nM DAPI in PBS, and then rinsed twice with PBS (10 min each). For each treatment, 3 wells are stained.
Images of the stained cells are acquired by means of the IN Cell Analyzer 2500 HS Instrument, using: far red channel for Acetyl-α-Tubulin staining (exposure 0.02 sec), green channel for α-Tubulin staining (exposure 0.02 sec), and blue channel for DAPI (nuclei) staining. For each well, 10 images are acquired.
Images of stained cells are analysed with the InCarta software (Molecular Devices) for obtaining fluorescence intensity considering whole cells. For each treatment, mean values of Cell intensity—Bckg (Cell), for both staining, are obtained using the InCarta raw data by FOV (Field of View). Results are expressed as fold increase of the ratio of acetylated tubulin and total tubulin towards control (CTRL DMSO).

A further assay deals with recombinant human HDAC6 (Homo sapiens (Human), UniProt Q9UBN7). The experiment in a line: Enzyme inhibitory activity assay on HDAC6. Conditions: 30 minutes preincubation at 25° C. The format is biochemical. The procedure: as §1, §2
recombinant human HDAC6, sequence (Q9UBN7 whole entry): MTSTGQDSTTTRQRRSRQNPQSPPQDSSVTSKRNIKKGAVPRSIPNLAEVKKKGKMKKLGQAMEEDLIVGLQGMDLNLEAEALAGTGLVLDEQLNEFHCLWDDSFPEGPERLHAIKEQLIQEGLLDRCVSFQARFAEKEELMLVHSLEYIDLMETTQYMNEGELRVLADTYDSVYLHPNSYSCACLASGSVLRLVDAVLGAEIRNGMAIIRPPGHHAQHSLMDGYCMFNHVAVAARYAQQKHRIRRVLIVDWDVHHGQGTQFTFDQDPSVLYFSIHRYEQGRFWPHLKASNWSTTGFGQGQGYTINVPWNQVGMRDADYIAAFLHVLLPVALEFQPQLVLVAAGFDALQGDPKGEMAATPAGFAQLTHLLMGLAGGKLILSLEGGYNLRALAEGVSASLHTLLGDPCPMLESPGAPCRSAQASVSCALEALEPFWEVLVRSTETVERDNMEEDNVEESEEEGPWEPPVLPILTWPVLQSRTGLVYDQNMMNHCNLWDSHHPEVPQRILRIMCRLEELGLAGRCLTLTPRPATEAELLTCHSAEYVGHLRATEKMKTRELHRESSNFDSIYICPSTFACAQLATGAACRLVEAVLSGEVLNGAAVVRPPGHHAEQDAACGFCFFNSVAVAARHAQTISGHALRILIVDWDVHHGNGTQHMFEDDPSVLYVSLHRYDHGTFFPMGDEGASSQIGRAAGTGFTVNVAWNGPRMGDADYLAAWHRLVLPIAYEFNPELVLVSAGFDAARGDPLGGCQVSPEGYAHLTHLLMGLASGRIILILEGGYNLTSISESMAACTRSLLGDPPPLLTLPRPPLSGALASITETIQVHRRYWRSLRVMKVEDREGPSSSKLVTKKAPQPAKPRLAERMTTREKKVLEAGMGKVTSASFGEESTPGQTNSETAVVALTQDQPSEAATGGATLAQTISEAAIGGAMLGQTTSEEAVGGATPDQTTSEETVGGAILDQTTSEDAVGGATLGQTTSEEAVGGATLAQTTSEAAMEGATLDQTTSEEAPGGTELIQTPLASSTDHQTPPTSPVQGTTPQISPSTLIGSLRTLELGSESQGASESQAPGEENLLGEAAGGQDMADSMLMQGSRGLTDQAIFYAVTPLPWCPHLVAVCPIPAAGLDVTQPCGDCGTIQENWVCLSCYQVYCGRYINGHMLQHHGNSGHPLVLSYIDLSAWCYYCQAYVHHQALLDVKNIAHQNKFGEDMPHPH

recombinant human HDAC1, sequence (Q13547 whole entry): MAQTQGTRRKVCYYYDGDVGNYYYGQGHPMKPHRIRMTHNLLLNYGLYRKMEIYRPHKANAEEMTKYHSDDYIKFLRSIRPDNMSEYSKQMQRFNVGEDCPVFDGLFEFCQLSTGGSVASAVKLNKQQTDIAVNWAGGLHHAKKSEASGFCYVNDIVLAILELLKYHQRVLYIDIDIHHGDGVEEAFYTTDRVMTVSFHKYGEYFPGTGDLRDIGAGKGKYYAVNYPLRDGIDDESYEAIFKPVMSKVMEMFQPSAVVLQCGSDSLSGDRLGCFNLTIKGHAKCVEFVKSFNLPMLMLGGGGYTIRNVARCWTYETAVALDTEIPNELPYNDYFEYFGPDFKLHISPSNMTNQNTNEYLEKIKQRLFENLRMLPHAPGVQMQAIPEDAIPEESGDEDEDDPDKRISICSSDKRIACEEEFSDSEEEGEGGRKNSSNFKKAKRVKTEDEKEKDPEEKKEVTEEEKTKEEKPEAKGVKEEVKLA

For `Nc1nc2ccc(-c3cn(Cc4ccc(-c5nnc(C(F)F)o5)cc4F)nn3)cc2s1` [Compound 2-A], the negative-log IC50 (pIC50) at recombinant human HDAC1 is below 4.00. Besides, the “TubAc SH-SY5Y cells fold increase of the ratio of acetylated tubulin and total tubulin towards control” value with SH-SY5Y cells was determined as 6.2 fold.
`Nc1nc2ccc(-c3cn(Cc4ccc(-c5nnc(C(F)F)o5)cc4Cl)nn3)cc2s1` [Compound 37-A]: the values for the pIC50 at recombinant human HDAC6 and on recombinant human HDAC1 were 7.21 and below 4.00, respectively. For the same molecule, the “TubAc SH-SY5Y cells fold increase of the ratio of acetylated tubulin and total tubulin towards control” value in the assay on SH-SY5Y cells was determined as 6 fold.
`FC(F)c1nnc(-c2ccc(Cn3cc(-c4ccccn4)nn3)nc2)o1` [Compound 20-A]: the results for the negative-log IC50 (pIC50) at recombinant human HDAC6 and on recombinant human HDAC1 were 7.22 and below 4.00, respectively.
Take `Nc1nc2ccc(C3CN(Cc4ccc(C(=O)NNC(=O)C(F)F)s4)N=N3)cc2s1` (stereo not drawn) [Compound 48-A]: the figures for the negative-log IC50 (pIC50) on recombinant human HDAC6 and on recombinant human HDAC1 were 8.15 and below 4.00, respectively. Further, the “TubAc SH-SY5Y cells fold increase of the ratio of acetylated tubulin and total tubulin towards control” value in the assay with SH-SY5Y cells worked out at 15.7 fold.
As for `FC(F)c1nnc(-c2ccc(Cn3cc(-c4ccccc4)nn3)nc2)o1` [Compound 13-A], the pIC50 is 7.49 at recombinant human HDAC6 and below 4.00 at recombinant human HDAC1.
As for `Nc1nc2ccc(-c3cn(Cc4ccc(-c5nnc(C(F)F)o5)cn4)nn3)cc2s1` [Compound 38-A], the pIC50 at recombinant human HDAC6 was 8.10; on recombinant human HDAC1, below 4.00. Further, the “TubAc SH-SY5Y cells fold increase of the ratio of acetylated tubulin and total tubulin towards control” value with SH-SY5Y cells was 10 fold.
For `Nc1nc2ccc(-c3cn(Cc4ccc(-c5nnc(C(F)F)o5)cc4)nn3)cc2s1` [Compound 32-A] the same measures were 7.59, below 4.00 and 6.3 fold.
For `FC(F)c1nnc(-c2ccc(Cn3cc(-c4ccc(NC5=NCCN5)cc4)nn3)cc2)o1` [Compound 1-A] the same measures were 7.85, below 4.00 and 2 fold.
For `Fc1ccccc1-c1cn(Cc2ccc(-c3nnc(C(F)F)o3)cn2)nn1` [Compound 14-A] the same measures were 7.66, below 4.00 and 6.3 fold.

The pIC50 is the negative decadic logarithm of the IC50, by convention in mol/L.
